Measurements taken from patent publication US20230090255A1, “MAGL INHIBITOR, PREPARATION METHOD THEREFOR AND USE THEREOF” (LUNAN PHARMACEUTICAL GROUP CORPORATION, priority 2019, published 2023).

Assays:
[1] = test system: mice with inflammatory pain; assay: Pain threshold of mice with inflammatory pain (complete Freund's adjuvant); format: in vivo, SD mice; details: for Pain threshold: complete Freund's adjuvant paw model
[2] = test system: mice writhing caused by acetic acid; assay: Mice writhing caused by acetic acid; details: for Writhing times: 1 h before 0.7% acetic acid ip, within 20 min; for Latent time: time to first writhing; for Inhibition ratio: writhing inhibition
[3] = test system: reserpine-induced mice migraine; assay: Reserpine-induced mice migraine; format: in vivo, ICR mice; details: for Blood coagulation time: reserpine 0.2 mg/kg sc mice, 1 h after final administration; for brain tissue 5-HT / Times of tail suspension (struggling times within 2 min): reserpine mice; for Times of tail suspension (struggling times within 2 min): 9th day
ulcerative colitis mice = assay: Mice ulcerative colitis (DSS); format: in vivo, BALB/c mice; details: for Total times of hematochezia within the four periods / Colon length / IL-1 content: DSS mice; for Colon length: four periods; for IL-1 content: serum, ELISA
[4] = test system: mice pain response induced by hot plate; assay: Mice pain response induced by hot plate; format: in vivo, ICR mice; details: for Pain threshold: hot plate 55°C
Outline: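 Female ICR mice (20±2 g) dosed intragastrically for 7 consecutive days. Latency to hind-paw licking on a 55±0.5° C hot plate measured at 30, 60, 90 and 120 min after the last dose, with a 60 s cap. Mice with baseline latency <5 s or >30 s, or jumping, excluded.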

How did the “pain threshold of the mice with inflammatory pain, in words” value ([1]; compared with the model group) turn out when `O=C(Nc1cccc(Cl)c1)C1CCN(C(=O)c2cc3ccccc3[nH]2)CC1` [MAGLZ-II-18] was run?
The value was “significantly extend”.

And the Pain threshold ([1]; high dose 30 mg/kg ig once per day, 0 d)?
The Pain threshold was 12.85±2.26^∗∗ s.

And the Pain threshold ([1]; high dose 30 mg/kg ig once per day, 1 d)?
The Pain threshold was 6.95±0.85^∗∗ s.

And the Pain threshold ([1]; high dose 30 mg/kg ig once per day, 3 d)?
The Pain threshold was 8.49±1.15^∗∗ s.

And the Pain threshold ([1]; high dose 30 mg/kg ig once per day, 7 d)?
Its Pain threshold is 9.62±0.93^∗∗ s.

What about the Pain threshold ([1]; low dose 7.5 mg/kg ig once per day, 0 d) of the same molecule?
The Pain threshold was 12.73±2.43^∗ s.

What about the Pain threshold ([1]; low dose 7.5 mg/kg ig once per day, 1 d) of the same molecule?
Its Pain threshold is 6.39±0.91^∗ s.

And the Pain threshold ([1]; low dose 7.5 mg/kg ig once per day, 3 d)?
Its Pain threshold is 8.12±1.29^∗ s.

And the Pain threshold ([1]; low dose 7.5 mg/kg ig once per day, 7 d)?
The Pain threshold was 9.16±1.17^∗ s.

What about the Pain threshold ([1]; middle dose 15 mg/kg ig once per day, 0 d) of the same molecule?
Its Pain threshold is 12.86±2.25^∗∗ s.

And the Pain threshold ([1]; middle dose 15 mg/kg ig once per day, 1 d)?
The Pain threshold was 6.62±0.69^∗∗ s.

What about the Pain threshold ([1]; middle dose 15 mg/kg ig once per day, 3 d) of the same molecule?
The Pain threshold was 8.24±0.73^∗∗ s.

And the Pain threshold ([1]; middle dose 15 mg/kg ig once per day, 7 d)?
Its Pain threshold is 9.51±1.15^∗∗ s.

And the Writhing times ([2]; high dose 30 mg/kg ig)?
The Writhing times was 15.8±15.3.

What about the Latent time ([2]; high dose 30 mg/kg ig) of the same molecule?
The Latent time was 410.9 ± 186.5 s.

What about the Inhibition ratio ([2]; high dose 30 mg/kg ig) of the same molecule?
The Inhibition ratio was 59.8%.

And the Writhing times ([2]; low dose 7.5 mg/kg ig)?
Its Writhing times is 25.0±13.5.

What about the Latent time ([2]; low dose 7.5 mg/kg ig) of the same molecule?
Its Latent time is 318.7 ± 120.2 s.

What about the Inhibition ratio ([2]; low dose 7.5 mg/kg ig) of the same molecule?
Its Inhibition ratio is 36.4%.

And the Writhing times ([2]; middle dose 15 mg/kg ig)?
Its Writhing times is 21.8±12.4.

What about the Latent time ([2]; middle dose 15 mg/kg ig) of the same molecule?
The Latent time was 381.4 ± 127.1 s.

And the Inhibition ratio ([2]; middle dose 15 mg/kg ig)?
Its Inhibition ratio is 44.5%.

What about the “blood coagulation time, in words” value ([3]; compared with the model group) of the same molecule?
Its value is “significantly extend”.

What about the “level of 5-HT in the brain tissue, in words” value ([3]; compared with the model group) of the same molecule?
Its value is “significantly increase”.

And the “times of the tail suspension activity, in words” value ([3]; compared with the model group)?
The value was “significantly increase”.

What about the Blood coagulation time ([3]; high dose 30 mg/kg ig 10 d) of the same molecule?
Its Blood coagulation time is 241.5 ± 41.63 S.

And the Blood coagulation time ([3]; low dose 7.5 mg/kg ig 10 d)?
The Blood coagulation time was 186.5±51.71 S.

And the Blood coagulation time ([3]; middle dose 15 mg/kg ig 10 d)?
Its Blood coagulation time is 212.63±46.02 S.

And the “brain tissue 5-HT” value ([3]; high dose 30 mg/kg ig 10 d)?
Its value is 2.08 ± 0.59 nmol/g.

And the “Times of tail suspension (struggling times within 2 min)” value (“Times of tail suspension” below) ([3]; high dose 30 mg/kg ig)?
The value was 16.51±4.38.

What about the “brain tissue 5-HT” value ([3]; low dose 7.5 mg/kg ig 10 d) of the same molecule?
Its value is 1.13 ± 0.45 nmol/g.

And the “Times of tail suspension” value ([3]; low dose 7.5 mg/kg ig)?
Its value is 11.88±4.02.

And the “brain tissue 5-HT” value ([3]; middle dose 15 mg/kg ig 10 d)?
Its value is 1.54 ± 0.54 nmol/g.

What about the “Times of tail suspension” value ([3]; middle dose 15 mg/kg ig) of the same molecule?
Its value is 13.75±4.56.

And the “Total times of hematochezia within the four periods” value (ulcerative colitis mice; high dose 30 mg/kg ig)?
The value was 32.80±4.37.

What about the Colon length (ulcerative colitis mice; high dose 30 mg/kg ig) of the same molecule?
Its Colon length is 6.73±0.63 cm.

What about the IL-1 content (ulcerative colitis mice; high dose 30 mg/kg ig) of the same molecule?
The IL-1 content was 46.98 ± 7.56 pg/mL.

What about the “Total times of hematochezia within the four periods” value (ulcerative colitis mice; low dose 7.5 mg/kg ig) of the same molecule?
Its value is 32.80±4.64.

And the Colon length (ulcerative colitis mice; low dose 7.5 mg/kg ig)?
Its Colon length is 6.44±0.64 cm.

What about the IL-1 content (ulcerative colitis mice; low dose 7.5 mg/kg ig) of the same molecule?
Its IL-1 content is 46.15 ± 9.65 pg/mL.

What about the “Total times of hematochezia within the four periods” value (ulcerative colitis mice; middle dose 15 mg/kg ig) of the same molecule?
The value was 33.90±4.77.

What about the Colon length (ulcerative colitis mice; middle dose 15 mg/kg ig) of the same molecule?
The Colon length was 6.37±0.39 cm.

And the IL-1 content (ulcerative colitis mice; middle dose 15 mg/kg ig)?
Its IL-1 content is 49.01 ± 5.65 pg/mL.

What about the “IL-1 content, in words” value (ulcerative colitis mice; compared with the model group) of the same molecule?
Its value is “decrease”.

And the “colon length, in words” value (ulcerative colitis mice; compared with the model group)?
The value was “significantly increase”.

What about the “total times of hematochezia, in words” value (ulcerative colitis mice; compared with the model group) of the same molecule?
The value was “reduce”.

And the “pain thresholds of the thermal-stimulus mice, in words” value ([4]; compared with the model group)?
The value was “significantly extend”.

And the Pain threshold ([4]; high dose 30 mg/kg ig 7 d, 30 min after final administration)?
Its Pain threshold is 26.73 ± 7.37 s.

And the Pain threshold ([4]; high dose 30 mg/kg ig 7 d, 60 min)?
Its Pain threshold is 27.22 ± 7.29 s.

What about the Pain threshold ([4]; high dose 30 mg/kg ig 7 d, 90 min) of the same molecule?
The Pain threshold was 27.86 ± 7.93 s.

And the Pain threshold ([4]; high dose 30 mg/kg ig 7 d, 120 min)?
The Pain threshold was 27.62 ± 10.01 s.

What about the Pain threshold ([4]; low dose 7.5 mg/kg ig 7 d, 30 min after final administration) of the same molecule?
Its Pain threshold is 26.33 ± 7.52 s.

And the Pain threshold ([4]; low dose 7.5 mg/kg ig 7 d, 60 min)?
The Pain threshold was 26.74 ± 7.05 s.

What about the Pain threshold ([4]; low dose 7.5 mg/kg ig 7 d, 90 min) of the same molecule?
Its Pain threshold is 27.16 ± 7.32 s.

What about the Pain threshold ([4]; low dose 7.5 mg/kg ig 7 d, 120 min) of the same molecule?
Its Pain threshold is 26.64 ± 10.03 s.

And the Pain threshold ([4]; middle dose 15 mg/kg ig 7 d, 30 min after final administration)?
Its Pain threshold is 26.41 ± 7.53 s.

And the Pain threshold ([4]; middle dose 15 mg/kg ig 7 d, 60 min)?
The Pain threshold was 27.09 ± 7.53 s.

What about the Pain threshold ([4]; middle dose 15 mg/kg ig 7 d, 90 min) of the same molecule?
Its Pain threshold is 27.58 ± 7.71 s.

What about the Pain threshold ([4]; middle dose 15 mg/kg ig 7 d, 120 min) of the same molecule?
Its Pain threshold is 27.38 ± 9.97 s.
